From PubChem BioAssay AID248 (DTP/NCI, 2004)
Values joined by “and” are separate entries in the source; they are usually repeats but may differ in a detail not shown here. Equal entries are not always repeated. Inconclusive results and toxic doses are left out.

System: L1210 leukemia ip in BDF1 mice, survival T/C
Assay: NCI In Vivo Anticancer Drug Screen. Data for tumor model L1210 Leukemia (intraperitoneal) in B6D2F1 (BDF1) mice
Conditions: endpoint: mean survival time, higher = longer survival
Method in brief: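 Tumor cells were implanted, animals were treated, and survival was followed. The result divides the treated measurement by the vehicle-control measurement.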

[1] = dose: 50.0 mg/kg/injection, schedule: Q01DX009 (ip), vehicle: saline with Tween-80
[2] = dose: 100.0 mg/kg/injection, schedule: Q01DX009 (ip), vehicle: saline with Tween-80
[3] = dose: 100.0 mg/kg/injection, schedule: Q04DX003 (ip), vehicle: saline with Tween-80
[4] = dose: 200.0 mg/kg/injection, schedule: Q01DX009 (ip), vehicle: saline with Tween-80
[5] = dose: 200.0 mg/kg/injection, schedule: Q04DX003 (ip), vehicle: saline with Tween-80
[6] = dose: 400.0 mg/kg/injection, schedule: Q01DX009 (ip), vehicle: saline with Tween-80
[7] = dose: 400.0 mg/kg/injection, schedule: Q04DX003 (ip), vehicle: saline with Tween-80
[8] = dose: 100.0 mg/kg/injection, schedule: Q01DX001 (ip), vehicle: saline
[9] = dose: 200.0 mg/kg/injection, schedule: Q01DX001 (ip), vehicle: saline
[10] = dose: 100.0 mg/kg/injection, schedule: Q04DX003 (ip), vehicle: saline
[11] = dose: 200.0 mg/kg/injection, schedule: Q04DX003 (ip), vehicle: saline
[12] = dose: 400.0 mg/kg/injection, schedule: Q04DX003 (ip), vehicle: saline
[13] = dose: 100.0 mg/kg/injection, schedule: Q01DX001 (ip), vehicle: Klucel (hydroxypropylcellulose) (HPC)
[14] = dose: 100.0 mg/kg/injection, schedule: Q04DX003 (ip), vehicle: Klucel (hydroxypropylcellulose) (HPC)
[15] = dose: 200.0 mg/kg/injection, schedule: Q04DX003 (ip), vehicle: Klucel (hydroxypropylcellulose) (HPC)
[16] = dose: 400.0 mg/kg/injection, schedule: Q04DX003 (ip), vehicle: Klucel (hydroxypropylcellulose) (HPC)

In the case of `COc1ccc2nc3cc(Cl)ccc3c(NCCCNCCCl)c2c1`, the T/C (dose: 10.0 mg/kg/injection, schedule: Q04DX003 (ip), vehicle: Klucel (hydroxypropylcellulose) (HPC)) is reported as 115 % of control, the T/C (dose: 20.0 mg/kg/injection, schedule: Q04DX003 (ip), vehicle: Klucel (hydroxypropylcellulose) (HPC)) is reported as 103 % of control and the T/C (dose: 40.0 mg/kg/injection, schedule: Q04DX003 (ip), vehicle: Klucel (hydroxypropylcellulose) (HPC)) is reported as 105 % of control.
For `CC1=CC2CCC1C2` (configuration not stated), the T/C (dose: 75.0 mg/kg/injection, schedule: Q01DX001 (ip), vehicle: acetone) was 101 % of control and the T/C (dose: 150.0 mg/kg/injection, schedule: Q01DX001 (ip), vehicle: acetone) was 95 % of control.
With `Clc1ccc(C=NCCN=Cc2ccc(Cl)c(Cl)c2)cc1Cl` the T/C (dose: 25.0 mg/kg/injection, schedule: Q01DX009 (ip), vehicle: saline with Tween-80) was 92 % of control, the T/C [1] was 90 % of control and the T/C [2] was 103 % of control. For the same compound, the T/C [3] was 91 % of control, the T/C [4] was 98 % of control and the T/C [5] was 91 % of control. The T/C [6] was 101 % of control and the T/C [7] was 95 % of control.
In the case of `NC(=O)c1ccccc1C(Cl)(Cl)Cl`, the T/C [1] is reported as 88 % of control, the T/C [2] is reported as 89 % of control and the T/C [3] is reported as 104 % of control. For the same compound, the T/C [5] was 96 % of control.
With `Cc1cccc(C)c1N(C=O)N=O` the T/C [8] was 110 % of control and the T/C [9] was 104 % of control.
`Cc1cnc(/C=N/NC(N)=S)cn1` was tested, and the T/C (dose: 100.0 mg/kg/injection, schedule: Q04DX002 (ip), vehicle: saline) was 99 % of control, the T/C (dose: 200.0 mg/kg/injection, schedule: Q04DX002 (ip), vehicle: saline) was 96 % of control and the T/C (dose: 400.0 mg/kg/injection, schedule: Q04DX002 (ip), vehicle: saline) was 108 % of control.
In the case of `Cc1cccc(C)c1NC(=O)Oc1cccc2ccccc12`, the T/C (dose: 100.0 mg/kg/injection, schedule: Q01DX009 (ip), vehicle: saline) is reported as 97 % of control, the T/C [10] is reported as 93 % of control and the T/C (dose: 200.0 mg/kg/injection, schedule: Q01DX009 (ip), vehicle: saline) is reported as 95 % of control. The T/C [11] was 98 % of control, the T/C (dose: 400.0 mg/kg/injection, schedule: Q01DX009 (ip), vehicle: saline) was 103 % of control and the T/C [12] was 100 % of control.
In the case of `O=C1OCC/C1=C/OS(=O)(=O)C(F)(F)F`, the T/C (dose: 12.5 mg/kg/injection, schedule: Q01DX009 (ip), vehicle: water) is reported as 105 % of control, the T/C (dose: 25.0 mg/kg/injection, schedule: Q01DX009 (ip), vehicle: water) is reported as 106 % of control and the T/C (dose: 50.0 mg/kg/injection, schedule: Q01DX009 (ip), vehicle: water) is reported as 105 % of control. The T/C (dose: 100.0 mg/kg/injection, schedule: Q01DX009 (ip), vehicle: water) was 104 % of control.
For `c1ccc([Si](C[CH2][Sn]([c]2ccccc2)([c]2ccccc2)[c]2ccccc2)(c2ccccc2)c2ccc([Si](C[CH2][Sn]([c]3ccccc3)([c]3ccccc3)[c]3ccccc3)(c3ccccc3)c3ccccc3)cc2)cc1`, the T/C [3] was 100 % of control, the T/C [5] was 96 % of control and the T/C [7] was 96 % of control.
`CC(=O)C1=C(c2ccccc2)NC(=O)NC1c1ccco1` (configuration not stated) was tested, and the T/C [3] was 94 % of control, the T/C [5] was 90 % of control and the T/C [7] was 92 % of control.
`O=C(O)/C(Cl)=C(/Cl)C(Cl)=C(Cl)Cl` was tested, and the T/C [1] was 97 % of control.
With `COC(=O)Nc1ccccc1` the T/C [13] was 97 % of control, the T/C (dose: 100.0 mg/kg/injection, schedule: Q04DX002 (ip), vehicle: gum acacia) was 113 % of control and the T/C (dose: 200.0 mg/kg/injection, schedule: Q01DX001 (ip), vehicle: Klucel (hydroxypropylcellulose) (HPC)) was 98 % of control. For the same compound, the T/C (dose: 200.0 mg/kg/injection, schedule: Q04DX002 (ip), vehicle: gum acacia) was 100 % of control, the T/C (dose: 400.0 mg/kg/injection, schedule: Q01DX001 (ip), vehicle: Klucel (hydroxypropylcellulose) (HPC)) was 101 % of control and the T/C (dose: 400.0 mg/kg/injection, schedule: Q04DX002 (ip), vehicle: gum acacia) was 103 % of control.
With `CCOC(=O)/C(C)=C\C=C(\C)CCC=C(C)C` the T/C (dose: 100.0 mg/kg/injection, schedule: Q01DX009 (ip), vehicle: Klucel (hydroxypropylcellulose) (HPC)) was 104 % of control, the T/C (dose: 200.0 mg/kg/injection, schedule: Q01DX009 (ip), vehicle: Klucel (hydroxypropylcellulose) (HPC)) was 102 % of control and the T/C (dose: 400.0 mg/kg/injection, schedule: Q01DX009 (ip), vehicle: Klucel (hydroxypropylcellulose) (HPC)) was 104 % of control.
In the case of `Cc1coc(NS(=O)(=O)c2ccc(N=Nc3c(N)[nH]c(=O)[nH]c3=O)cc2)c1C`, the T/C [8] is reported as 103 % of control, the T/C [9] is reported as 96 % of control and the T/C (dose: 400.0 mg/kg/injection, schedule: Q01DX001 (ip), vehicle: saline) is reported as 104 % of control.
For `O=C1C=CC(=O)N1Cc1ccc[n+](CCC[n+]2cccc(CN3C(=O)C=CC3=O)c2)c1`, the T/C (dose: 100.0 mg/kg/injection, schedule: Q01DX001 (ip), vehicle: carboxymethylcellulose (CMC)) was 98 % of control, the T/C (dose: 200.0 mg/kg/injection, schedule: Q01DX001 (ip), vehicle: carboxymethylcellulose (CMC)) was 91 % of control and the T/C (dose: 400.0 mg/kg/injection, schedule: Q01DX001 (ip), vehicle: carboxymethylcellulose (CMC)) was 96 % of control.
For `O=S(=O)(O)c1cccc(N=Nc2c(S(=O)(=O)O)cc3cc(S(=O)(=O)O)c(N=Nc4cccc(S(=O)(=O)O)c4)c(O)c3c2O)c1`, the T/C [2] was 109 % of control, the T/C [10] was 116 % of control and the T/C [4] was 97 % of control. The T/C [11] was 111 % of control, the T/C [6] was 108 % of control and the T/C [12] was 103 % of control.
`COC(=O)CCC(=O)NCCc1cccc(OC)c1` was tested, and the T/C [14] was 97 % of control, the T/C [15] was 98 % of control and the T/C [16] was 92 % of control.
With `Cc1ccc(S(=O)(=O)N/N=C2\CCCC3CC23C)cc1` (configuration not stated) the T/C (dose: 75.0 mg/kg/injection, schedule: Q04DX002 (ip), vehicle: Klucel (hydroxypropylcellulose) (HPC)) was 93 % of control, the T/C (dose: 150.0 mg/kg/injection, schedule: Q04DX002 (ip), vehicle: Klucel (hydroxypropylcellulose) (HPC)) was 93 % of control and the T/C (dose: 300.0 mg/kg/injection, schedule: Q04DX002 (ip), vehicle: Klucel (hydroxypropylcellulose) (HPC)) was 104 % of control.
For `COC(=O)C1CCC(NC(=O)N(CCCl)N=O)CC1` (configuration not stated), the T/C (dose: 13.0 mg/kg/injection, schedule: Q01DX001 (ip), vehicle: Klucel (hydroxypropylcellulose) (HPC)) was 212 % of control and 188 % of control, the T/C (dose: 20.0 mg/kg/injection, schedule: Q01DX001 (ip), vehicle: Klucel (hydroxypropylcellulose) (HPC)) was 270 % of control and 283 % of control and the T/C (dose: 30.0 mg/kg/injection, schedule: Q01DX001 (ip), vehicle: Klucel (hydroxypropylcellulose) (HPC)) was 283 % of control. For the same compound, the T/C (dose: 44.0 mg/kg/injection, schedule: Q01DX001 (ip), vehicle: Klucel (hydroxypropylcellulose) (HPC)) was 248 % of control and 282 % of control, the T/C (dose: 67.0 mg/kg/injection, schedule: Q01DX001 (ip), vehicle: Klucel (hydroxypropylcellulose) (HPC)) was 266 % of control and the T/C [13] was 104 % of control.
With `O=C(Nc1ccc2cc(S(=O)(=O)O)ccc2c1)c1ccc(N=Nc2c(S(=O)(=O)O)cc3cc(S(=O)(=O)O)cc(NC(=O)c4ccccc4)c3c2O)cc1` the T/C (dose: 25.0 mg/kg/injection, schedule: Q01DX001 (ip), vehicle: Klucel (hydroxypropylcellulose) (HPC)) was 93 % of control, the T/C (dose: 25.0 mg/kg/injection, schedule: Q01DX009 (ip), vehicle: other) was 108 % of control and the T/C (dose: 25.0 mg/kg/injection, schedule: Q04DX003 (ip), vehicle: Klucel (hydroxypropylcellulose) (HPC)) was 95 % of control. The T/C (dose: 50.0 mg/kg/injection, schedule: Q01DX001 (ip), vehicle: Klucel (hydroxypropylcellulose) (HPC)) was 88 % of control, the T/C (dose: 50.0 mg/kg/injection, schedule: Q01DX009 (ip), vehicle: other) was 102 % of control and the T/C (dose: 50.0 mg/kg/injection, schedule: Q04DX003 (ip), vehicle: Klucel (hydroxypropylcellulose) (HPC)) was 98 % of control. The T/C [13] was 92 % of control, the T/C (dose: 100.0 mg/kg/injection, schedule: Q01DX009 (ip), vehicle: other) was 97 % of control and the T/C [14] was 101 % of control. For the same compound, the T/C [3] was 104 % of control, the T/C (dose: 150.0 mg/kg/injection, schedule: Q01DX009 (ip), vehicle: other) was 89 % of control and the T/C [5] was 91 % of control.
`O=C(Nc1ccc(F)c([N+](=O)[O-])c1)Nc1cc([N+](=O)[O-])ccc1F` was tested, and the T/C [14] was 96 % of control, the T/C [15] was 93 % of control and the T/C [16] was 101 % of control.
